Laboratory results published in patent US11840686B2, “Modulation of prekallikrein (PKK) expression” (Ionis Pharmaceuticals, Inc., priority 2013, dated 2023).
Strand notation (5' to 3'): a small letter for the sugar, then the base; units joined by * are phosphorothioate-linked, units joined directly phosphodiester-linked; [ ] holds rarer units or linkages, { } end groups; capitals alone tell only the bases. e = 2'-O-(2-methoxyethyl) (MOE); k = constrained ethyl (cEt); [5mC] = 5-methylcytosine; d = 2'-deoxy (DNA)

Tested on: human PKK mRNA
Test: Antisense inhibition of human PKK mRNA in HepaRG cells, 1,000 nM, MOE/deoxy/cEt oligonucleotides (Example 3)
Format: cell-based
Conditions: PKK mRNA, HepaRG cells, 1,000 nM antisense oligonucleotide; Table 31
In short: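 HepaRG cells at 20,000 per well electroporated with 1,000 nM 16-mer MOE/cEt/deoxy gapmers (phosphorothioate, 5-methylcytosine). After about 24 h, PKK mRNA measured by qRT-PCR with primer probe set RTS3454, normalized to RIBOGREEN total RNA. Reported as percent inhibition versus untreated cells.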

Row | Substance | % inhibition [%]
1 | 548673 (antisense eG*eA*k[5mC]*d[5mC]*dT*dT*dG*d[5mC]*dT*dT*d[5mC]*d[5mC]*dA*kT*kG*eT) [compound 548673] | 40
2 | 548674 (antisense eG*eA*kG*dA*dG*dA*d[5mC]*dG*dG*d[5mC]*dA*d[5mC]*d[5mC]*k[5mC]*kT*eG) [compound 548674] | 4
3 | 548675 (antisense eG*eG*kG*dA*dA*dG*dG*dT*dA*dG*dT*dG*dT*kT*kA*e[5mC]) [compound 548675] | 8
4 | 548676 (antisense eG*eT*kG*dA*dA*dT*d[5mC]*dA*dG*dA*dG*d[5mC]*dA*kG*kT*eG) [compound 548676] | 63
5 | 548677 (antisense eT*e[5mC]*kA*d[5mC]*d[5mC]*dT*dG*dT*dG*dA*dG*dT*dA*kA*k[5mC]*e[5mC]) [compound 548677] | 40
6 | 548678 (antisense eG*eA*kG*dT*dT*dA*d[5mC]*d[5mC]*dT*dT*dA*d[5mC]*dA*kA*kG*e[5mC]) [compound 548678] | 22
7 | 548679 (antisense eT*e[5mC]*kT*d[5mC]*dA*dA*dG*d[5mC]*dA*dG*d[5mC]*d[5mC]*dT*kA*kT*eT) [compound 548679] | 0
8 | 548680 (antisense eG*e[5mC]*k[5mC]*d[5mC]*d[5mC]*dT*d[5mC]*dT*dT*dA*dA*dA*dT*kA*kG*e[5mC]) [compound 548680] | 9
9 | 548681 (antisense eG*eA*kT*dA*dT*d[5mC]*dA*dT*d[5mC]*dA*dT*d[5mC]*d[5mC]*k[5mC]*kA*eA) [compound 548681] | 22
10 | 548682 (antisense eG*eT*kA*dT*d[5mC]*d[5mC]*d[5mC]*d[5mC]*dT*dT*dT*dT*d[5mC]*kT*kA*eT) [compound 548682] | 0
11 | 548683 (antisense eA*eG*kT*dA*dT*d[5mC]*dT*d[5mC]*dA*dT*dG*dT*dG*k[5mC]*k[5mC]*eT) [compound 548683] | 46
12 | 548684 (antisense e[5mC]*eA*kA*dG*dA*d[5mC]*d[5mC]*dT*dT*dG*d[5mC]*dT*dT*kG*k[5mC]*e[5mC]) [compound 548684] | 24
13 | 548685 (antisense eT*eA*kG*dT*d[5mC]*d[5mC]*dA*d[5mC]*dT*dA*d[5mC]*dA*d[5mC]*kA*kG*e[5mC]) [compound 548685] | 24
14 | 548686 (antisense eA*e[5mC]*kG*dA*d[5mC]*dA*dA*dT*dG*dG*dG*dA*dT*kT*k[5mC]*eA) [compound 548686] | 0
15 | 548687 (antisense eG*eA*kA*dT*d[5mC]*dT*d[5mC]*d[5mC]*d[5mC]*dT*dG*dA*dG*kT*k[5mC]*eA) [compound 548687] | 20
16 | 548688 (DNA eT*eA*kG*dA*dG*dG*dG*dA*dT*d[5mC]*d[5mC]*d[5mC]*dA*kG*kG*eA) [compound 548688] | 0
17 | 548689 (DNA e[5mC]*e[5mC]*kA*dG*dG*dT*dG*d[5mC]*dA*dG*d[5mC]*dA*d[5mC]*kG*kG*eA) [compound 548689] | 12
